SMILES strings stand for the structures. Positions of bridges follow the written chain, without caps; N, C: chain ends. Non-standard residues stand in square brackets, D forms with d. Residues, ends and D or L forms follow the SMILES beside them. *: point of attachment. pY = N[C@@H](Cc1ccc(OP(=O)(O)O)cc1)C(=O)O; O(2-Aminobenzoyl) = Nc1ccccc1C(=O)O*; X9 = O=S(=O)(O*)c1cccc2cccnc12; X13 = Nc1cc2ccccc2cc1C(=O)O*; X2 = O=C(O*)c1cc2ccccc2[nH]1; X3 = O=C(O*)c1cnc2ccccc2c1; X7 = O=C(O*)c1cc2ccccc2cn1; X8 = Nc1cc(N)cc(C(=O)O*)c1; X12 = Nc1ccccc1C(=O)OCCN*; X5 = O=C(O*)C1Cc2ccccc2N1; Ac6c = NC1(C(=O)O)CCCCC1; X11 = Nc1ccc(C(=O)O*)cc1; Ac5c = NC1(C(=O)O)CCCC1; X1 = Nc1ccccc1C(=O)OCN*; X6 = Nc1cccc(C(=O)O*)c1; X10 = Nc1ncccc1C(=O)O*; X4 = O=C(O*)c1ccccc1O; Acm = CC(=O)NC*

This experiment addresses EGFR (UniProt P00533).

EGFR, sequence (P00533 whole entry, looked up): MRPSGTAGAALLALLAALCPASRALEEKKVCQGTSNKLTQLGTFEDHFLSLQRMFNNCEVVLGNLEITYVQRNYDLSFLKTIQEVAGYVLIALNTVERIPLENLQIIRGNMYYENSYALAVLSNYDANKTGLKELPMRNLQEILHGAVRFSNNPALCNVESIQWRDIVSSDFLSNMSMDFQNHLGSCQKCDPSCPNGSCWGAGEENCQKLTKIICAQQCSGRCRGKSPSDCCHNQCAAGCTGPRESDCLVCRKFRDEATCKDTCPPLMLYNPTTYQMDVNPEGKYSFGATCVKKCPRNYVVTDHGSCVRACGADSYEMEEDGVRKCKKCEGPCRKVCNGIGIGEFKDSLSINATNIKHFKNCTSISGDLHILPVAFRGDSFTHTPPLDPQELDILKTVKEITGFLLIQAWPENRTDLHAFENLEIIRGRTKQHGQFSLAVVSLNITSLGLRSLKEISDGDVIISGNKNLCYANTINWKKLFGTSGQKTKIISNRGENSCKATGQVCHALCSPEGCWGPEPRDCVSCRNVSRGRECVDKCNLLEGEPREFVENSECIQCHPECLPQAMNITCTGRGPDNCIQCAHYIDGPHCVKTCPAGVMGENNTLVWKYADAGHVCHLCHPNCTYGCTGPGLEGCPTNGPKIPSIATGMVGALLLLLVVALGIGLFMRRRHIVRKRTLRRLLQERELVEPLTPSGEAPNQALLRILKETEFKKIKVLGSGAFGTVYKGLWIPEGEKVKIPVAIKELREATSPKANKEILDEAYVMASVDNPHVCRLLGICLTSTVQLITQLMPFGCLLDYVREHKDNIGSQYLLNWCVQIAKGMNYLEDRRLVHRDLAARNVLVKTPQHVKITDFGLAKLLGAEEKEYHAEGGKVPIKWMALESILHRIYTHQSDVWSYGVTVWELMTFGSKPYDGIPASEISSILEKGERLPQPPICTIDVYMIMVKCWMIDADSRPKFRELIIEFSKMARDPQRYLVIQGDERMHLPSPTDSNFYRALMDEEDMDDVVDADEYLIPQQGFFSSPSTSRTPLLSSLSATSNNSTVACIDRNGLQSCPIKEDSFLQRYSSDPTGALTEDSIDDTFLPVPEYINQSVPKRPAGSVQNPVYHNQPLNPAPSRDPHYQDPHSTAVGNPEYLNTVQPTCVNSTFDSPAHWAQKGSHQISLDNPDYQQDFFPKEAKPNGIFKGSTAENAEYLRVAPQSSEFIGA

Turning to `CC[C@H](C)[C@H](NC(=O)[C@H](CC(N)=O)NC(=O)[C@@H](N)CCC(N)=O)C(=O)N[C@@H](Cc1ccc(OP(=O)(O)O)cc1)C(=O)N[C@H](C(=O)OC(=O)c1ccccc1N)C(C)C` (H-QNI[pY]V-{O(2-Aminobenzoyl)}), the IC50 – broadly, the concentration that inhibits the measured activity by half – came out at 106 nM.
The value for `CC[C@H](C)[C@H](NC(=O)[C@H](CC(N)=O)NC(=O)[C@@H](N)CSCNC(C)=O)C(=O)N[C@@H](Cc1ccc(OP(=O)(O)O)cc1)C(=O)N[C@@H](CSCNC(C)=O)C(=O)OC(=O)c1ccccc1N` was 96 nM.
The value for `CC[C@H](C)[C@H](NC(=O)[C@H](CC(N)=O)NC(=O)[C@@H](N)CCC(N)=O)C(=O)N[C@@H](Cc1ccc(OP(=O)(O)O)cc1)C(=O)N[C@@H](CCC(=O)O)C(=O)NCCOC(=O)c1ccccc1N` (H-QNI[pY]E-X12) was 130 nM; that for `NC(=O)CC[C@H](N)C(=O)N[C@@H](CC(N)=O)C(=O)N[C@H]1CSSC[C@@H](C(=O)OC(=O)c2ccccc2N)NC(=O)[C@H](Cc2ccc(OP(=O)(O)O)cc2)NC1=O` (H-QNC[pY]C-{O(2-Aminobenzoyl)}; disulfide 3-5) was 570 nM; that for `NC(=O)C[C@H](N)C(=O)NC1(C(=O)N[C@@H](Cc2ccc(OP(=O)(O)O)cc2)C(=O)N[C@@H](CCC(=O)O)C(=O)OC(=O)c2ccccc2N)CCCC1` (H-N[Ac5c][pY]E-{O(2-Aminobenzoyl)}) was 64 nM.
Take `CC[C@H](C)[C@H](NC(=O)[C@H](CC(N)=O)NC(=O)[C@@H](N)CCC(N)=O)C(=O)N[C@@H](Cc1ccc(OP(=O)(O)O)cc1)C(=O)N[C@@H](CCC(=O)O)C(=O)OC(=O)c1ccc(N)cc1` (H-QNI[pY]E-X11): the IC50 was 230 nM.
Consider `CC[C@H](C)[C@H](NC(=O)[C@H](CC(N)=O)NC(=O)[C@@H](N)CCC(N)=O)C(=O)N[C@@H](Cc1ccc(OP(=O)(O)O)cc1)C(=O)N[C@@H](CCC(=O)O)C(=O)OC(=O)C1Cc2ccccc2N1` (some centres undefined) (H-QNI[pY]E-X5), for which the IC50 came out at 74 nM.
The value for `CC[C@H](C)[C@H](NC(=O)[C@H](CC(N)=O)NC(=O)[C@@H](N)CCC(N)=O)C(=O)N[C@@H](Cc1ccc(OP(=O)(O)O)cc1)C(=O)N[C@@H](CCC(=O)O)C(=O)OC(=O)c1cccc(N)c1` (H-QNI[pY]E-X6) was 57 nM; that for `CC[C@H](C)[C@H](NC(=O)[C@H](CC(N)=O)NC(=O)[C@@H](N)CCC(N)=O)C(=O)N[C@@H](Cc1ccc(OP(=O)(O)O)cc1)C(=O)NCOC(=O)c1ccccc1N` (H-QNI[pY]-X1) was 6 nM; that for `CC[C@H](C)[C@H](NC(=O)[C@H](CC(N)=O)NC(=O)[C@@H](N)CCC(N)=O)C(=O)N[C@@H](Cc1ccc(OP(=O)(O)O)cc1)C(=O)N[C@@H](CCC(=O)O)C(=O)OC(=O)c1cc2ccccc2[nH]1` (H-QNI[pY]E-X2) was 200 nM.
`CC[C@H](C)[C@H](NC(=O)[C@H](CC(N)=O)NC(=O)[C@@H](N)CCC(N)=O)C(=O)N[C@@H](Cc1ccc(OP(=O)(O)O)cc1)C(=O)N[C@@H](CCC(=O)O)C(=O)OC(=O)c1cc2ccccc2cc1N` (H-QNI[pY]E-X13) showed an IC50 of 600 nM.
Turning to `CC[C@H](C)[C@@H]1NC(=O)[C@H](CC(N)=O)NC(=O)[C@@H](N)CSSC[C@@H](C(=O)OC(=O)c2ccccc2N)NC(=O)[C@H](Cc2ccc(OP(=O)(O)O)cc2)NC1=O` (H-CNI[pY]C-{O(2-Aminobenzoyl)}; disulfide 1-5), the IC50 came out at 214 nM.
The value for `CC[C@H](C)[C@H](NC(=O)[C@H](CC(N)=O)NC(=O)[C@@H](N)CCC(N)=O)C(=O)N[C@@H](Cc1ccc(OP(=O)(O)O)cc1)C(=O)N[C@@H](CCC(=O)O)C(=O)OC(=O)c1cnc2ccccc2c1` (H-QNI[pY]E-X3) was 810 nM; that for `CC[C@H](C)[C@H](NC(=O)[C@H](CC(N)=O)NC(=O)[C@@H](N)CCC(N)=O)C(=O)N[C@@H](Cc1ccc(OP(=O)(O)O)cc1)C(=O)N[C@@H](CCC(=O)O)C(=O)OC(=O)c1cc2ccccc2cn1` (H-QNI[pY]E-X7) was 550 nM; that for `CC[C@H](C)[C@H](NC(=O)[C@@H](N)CC(N)=O)C(=O)N[C@@H](Cc1ccc(OP(=O)(O)O)cc1)C(=O)N[C@@H](CCC(=O)O)C(=O)OC(=O)c1ccccc1N` (H-NI[pY]E-{O(2-Aminobenzoyl)}) was 22 nM.
Molecule `CC[C@H](C)[C@H](NC(=O)[C@H](CC(N)=O)NC(=O)[C@@H](N)CCC(N)=O)C(=O)N[C@@H](Cc1ccc(OP(=O)(O)O)cc1)C(=O)N[C@H](C(=O)OS(=O)(=O)c1cccc2cccnc12)[C@@H](C)CC` (H-QNI[pY]I-X9) yielded an IC50 of 230 nM.
The value for `CC[C@H](C)[C@H](NC(=O)[C@H](CC(N)=O)NC(=O)[C@@H](N)CCC(N)=O)C(=O)N[C@@H](Cc1ccc(OP(=O)(O)O)cc1)C(=O)N[C@@H](CC(C)C)C(=O)OC(=O)c1ccccc1N` (H-QNI[pY]L-{O(2-Aminobenzoyl)}) was 138 nM; that for `CC[C@H](C)[C@H](NC(=O)[C@@H](N)CC(N)=O)C(=O)N[C@@H](Cc1ccc(OP(=O)(O)O)cc1)C(=O)N[C@@H](Cc1ccccc1)C(=O)OC(=O)c1ccccc1N` (H-NI[pY]F-{O(2-Aminobenzoyl)}) was 54 nM.
The molecule `CC[C@H](C)[C@H](NC(=O)[C@H](CC(N)=O)NC(=O)[C@@H](N)CCC(N)=O)C(=O)N[C@@H](Cc1ccc(OP(=O)(O)O)cc1)C(=O)N[C@@H](CCC(=O)O)C(=O)OC(=O)c1ccccc1N` (H-QNI[pY]E-{O(2-Aminobenzoyl)}) returned an IC50 of 22 nM.
With `NC(=O)C[C@H](N)C(=O)NC1(C(=O)N[C@@H](Cc2ccc(OP(=O)(O)O)cc2)C(=O)N[C@@H](CCC(=O)O)C(=O)OC(=O)c2ccccc2N)CCCCC1` (H-N[Ac6c][pY]E-{O(2-Aminobenzoyl)}), the IC50 was found to be 14 nM.
Take `CC[C@H](C)[C@H](NC(=O)[C@H](CC(N)=O)NC(=O)[C@@H](N)CCC(N)=O)C(=O)N[C@@H](Cc1ccc(OP(=O)(O)O)cc1)C(=O)N[C@@H](C)C(=O)OC(=O)c1ccccc1N` (H-QNI[pY]A-{O(2-Aminobenzoyl)}): the IC50 was found to be 11 nM.
As to `CC[C@H](C)[C@H](NC(=O)[C@H](CC(N)=O)NC(=O)[C@@H](N)CCC(N)=O)C(=O)N[C@@H](Cc1ccc(OP(=O)(O)O)cc1)C(=O)N[C@H](C(=O)OC(=O)c1ccccc1N)[C@@H](C)CC` (H-QNI[pY]I-{O(2-Aminobenzoyl)}), the IC50 is 6 nM.
The molecule `CC[C@H](C)[C@@H]1NC(=O)[C@H](CC(N)=O)NC(=O)[C@H](CCC(N)=O)NC(=O)[C@@H](N)CSSC[C@@H](C(=O)OC(=O)c2ccccc2N)NC(=O)[C@H](Cc2ccc(OP(=O)(O)O)cc2)NC1=O` (H-CQNI[pY]C-{O(2-Aminobenzoyl)}; disulfide 1-6) came in with an IC50 of 15 nM.
In turn, `CC[C@H](C)[C@H](NC(=O)[C@H](CC(N)=O)NC(=O)[C@@H](N)CCC(N)=O)C(=O)N[C@@H](Cc1ccc(OP(=O)(O)O)cc1)C(=O)N[C@@H](CCC(=O)O)C(=O)OC(=O)c1ccccc1O` (H-QNI[pY]E-X4) gave an IC50 of 780 nM.
As to `CC[C@H](C)[C@H](NC(=O)[C@H](CC(N)=O)NC(=O)[C@H](N)CSCNC(C)=O)C(=O)N[C@@H](Cc1ccc(OP(=O)(O)O)cc1)C(=O)N[C@@H](CSCNC(C)=O)C(=O)OC(=O)c1ccccc1N`, the IC50 came to 272 nM.
For the molecule `CC(=O)NCSC[C@H](NC(=O)[C@H](CC(N)=O)NC(=O)[C@@H](N)CCC(N)=O)C(=O)N[C@@H](Cc1ccc(OP(=O)(O)O)cc1)C(=O)N[C@@H](CSCNC(C)=O)C(=O)OC(=O)c1ccccc1N` (H-QNC(Acm)[pY]C(Acm)-{O(2-Aminobenzoyl)}), the IC50 came out at 3140 nM.
`CC[C@H](C)[C@H](N)C(=O)N[C@H](C(=O)N[C@@H](Cc1ccc(OP(=O)(O)O)cc1)C(=O)N[C@@H](CC(=O)O)C(=O)OC(=O)c1ccccc1N)[C@@H](C)CC` (H-II[pY]D-{O(2-Aminobenzoyl)}) came in with an IC50 of 230 nM.
On to `CC[C@H](C)[C@H](NC(=O)[C@H](CC(N)=O)NC(=O)[C@@H](N)CCC(N)=O)C(=O)N[C@@H](Cc1ccc(OP(=O)(O)O)cc1)C(=O)N[C@@H](CCC(=O)O)C(=O)OC(=O)c1cc(N)cc(N)c1` (H-QNI[pY]E-X8), for which the IC50 is 180 nM.
Molecule `CC[C@H](C)[C@H](NC(=O)[C@H](CC(N)=O)NC(=O)[C@@H](N)CCC(N)=O)C(=O)N[C@@H](Cc1ccc(OP(=O)(O)O)cc1)C(=O)N[C@@H](CCC(=O)O)C(=O)OC(=O)c1cccnc1N` (H-QNI[pY]E-X10) displayed an IC50 of 480 nM.

The record behind these values is the Kinase Knowledgebase extract (Sharma et al. 2016).
